Active and inactive are the calls of the source. The calls are words filed in the database; no cut-off is given here.
system: RAW264.7; test: Antiinflammatory activity against mouse RAW264.7 cells assessed as stimulation LPS-induced TNFalpha release at 100 uM pretreated for 30 mins before LPS challenge by ELISA; assay type: functional, cell-based

Row | SMILES | Activity
1 | CO[C@@H]1[C@@H](O)[C@H](O[C@@H]2[C@@H](C)O[C@@H](O[C@H]3[C@@H](OC)C[C@H](O[C@@H]4[C@@H](C)O[C@@H](O[C@H]5CC[C@@]6(CO)C(=CC[C@@H]7[C@@H]6CC[C@]6(C)[C@@H]8[C@H]9CO[C@@]8(C)O[C@@]76O9)C5)C[C@H]4OC)O[C@@H]3C)C[C@H]2OC)O[C@H](C)[C@H]1O[C@@H]1O[C@H](CO)[C@@H](O)[C@H](O)[C@H]1O | Active
2 | CO[C@@H]1[C@@H](O)[C@H](O[C@@H]2[C@@H](C)O[C@@H](O[C@H]3[C@@H](OC)C[C@H](O[C@H]4[C@H](O)C[C@H](O[C@H]5CC[C@@]6(C)C(=CC[C@@H]7[C@@H]6CC[C@]6(C)[C@@H]8[C@H]9CO[C@@]8(C)O[C@@]76O9)C5)O[C@@H]4C)O[C@@H]3C)C[C@H]2OC)O[C@H](C)[C@H]1O[C@@H]1O[C@H](CO)[C@@H](O)[C@H](O)[C@H]1O | Active
3 | CO[C@H]1C[C@H](O[C@H]2CC[C@@]3(COC(C)=O)C(=CC[C@@H]4[C@@H]3CC[C@]3(C)[C@@H]5[C@H]6CO[C@@]5(C)O[C@@]43O6)C2)O[C@H](C)[C@H]1O[C@H]1C[C@H](OC)[C@H](O[C@H]2C[C@@H](O)[C@H](O[C@H]3C[C@@H](OC)[C@H](O[C@@H]4O[C@H](CO)[C@@H](O)[C@H](O)[C@H]4O)[C@@H](C)O3)[C@@H](C)O2)[C@@H](C)O1 | Active
4 | COC(=O)C[C@H](O[C@H]1CC[C@@]2(C)C(=CC[C@@H]3[C@@H]2CC[C@]2(C)[C@@H]4[C@H]5CO[C@@]4(C)O[C@@]32O5)C1)O[C@H](C)C(=O)O | inactive
